Laboratory results from patent US20260137703A1, “2-AMINO-PYRIDO[2,3-D]PYRIMIDIN-7(8H)-ONE AND 7-AMINO-1-PYRIMIDO[4,5-D]PYRIMIDIN-2(1 H)-ONE DERIVATIVES AS EGFR INHIBITORS FOR THE TREATMENT OF CANCER” (Cancer Research Technology Limited, priority 2022, published 2026).

Experiments:
[1] = target: T1, Phospho-EGFR (Tyr1068) in H1975 cells (Homo sapiens, UniProt P00533, L858R/T790M); experiment: HTRF pEGFR/total EGFR in H1975 cells; type: cell-based; conditions: ratio pEGFR/total EGFR, compound 3 hours
T1 construct: host or cells: H1975
T1 sequence (P00533 25-1210 T790M/L858R): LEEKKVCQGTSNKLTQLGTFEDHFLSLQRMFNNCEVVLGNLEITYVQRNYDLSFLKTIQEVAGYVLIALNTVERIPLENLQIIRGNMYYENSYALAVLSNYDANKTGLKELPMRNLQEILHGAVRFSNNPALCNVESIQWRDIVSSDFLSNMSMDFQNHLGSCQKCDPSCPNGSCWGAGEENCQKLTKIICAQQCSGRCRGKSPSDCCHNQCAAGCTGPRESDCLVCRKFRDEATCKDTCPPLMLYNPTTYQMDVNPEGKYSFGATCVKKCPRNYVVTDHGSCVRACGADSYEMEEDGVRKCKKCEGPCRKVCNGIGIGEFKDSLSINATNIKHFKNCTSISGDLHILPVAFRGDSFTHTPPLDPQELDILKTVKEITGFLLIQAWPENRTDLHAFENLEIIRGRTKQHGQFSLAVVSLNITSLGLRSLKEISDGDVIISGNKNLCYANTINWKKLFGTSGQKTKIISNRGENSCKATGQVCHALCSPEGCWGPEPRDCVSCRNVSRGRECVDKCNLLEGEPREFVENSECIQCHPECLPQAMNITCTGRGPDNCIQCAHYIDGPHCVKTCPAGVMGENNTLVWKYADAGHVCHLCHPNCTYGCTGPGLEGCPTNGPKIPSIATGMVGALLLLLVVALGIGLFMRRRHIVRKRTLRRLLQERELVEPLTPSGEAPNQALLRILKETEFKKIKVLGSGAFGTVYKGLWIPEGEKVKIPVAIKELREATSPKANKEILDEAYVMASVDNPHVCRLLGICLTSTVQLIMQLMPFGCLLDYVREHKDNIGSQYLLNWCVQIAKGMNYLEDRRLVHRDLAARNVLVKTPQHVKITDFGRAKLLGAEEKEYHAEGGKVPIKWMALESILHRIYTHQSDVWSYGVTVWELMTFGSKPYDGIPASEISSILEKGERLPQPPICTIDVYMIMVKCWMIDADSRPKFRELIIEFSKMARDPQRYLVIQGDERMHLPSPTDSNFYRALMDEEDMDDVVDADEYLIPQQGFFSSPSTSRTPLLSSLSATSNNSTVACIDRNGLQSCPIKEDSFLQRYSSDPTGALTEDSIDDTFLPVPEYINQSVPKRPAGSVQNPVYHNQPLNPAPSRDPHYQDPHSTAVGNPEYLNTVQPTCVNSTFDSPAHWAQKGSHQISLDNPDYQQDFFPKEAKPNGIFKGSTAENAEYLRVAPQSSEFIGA
Procedure, shortened: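 H1975 cells (EGFR L858R/T790M) treated 3 h with compound in 0.1% DMSO, in duplicate, 24 h after plating. Lysates assayed by HTRF for pEGFR (Tyr1068) and total EGFR at 665/620 nm; values are pEGFR/total EGFR ratio as percent of 0 μM control.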

[2] = target: T2, Phospho-EGFR (Tyr1068) in H1975 C797S cells (CRISPR-edited EGFR C797S) (Homo sapiens, UniProt P00533, C797S/L858R/T790M); experiment: HTRF pEGFR/total EGFR in H1975 C797S cells; type: cell-based; conditions: ratio pEGFR/total EGFR, compound 3 hours
T2 construct: host or cells: H1975 C797S (CRISPR-edited)
T2 sequence (P00533 25-1210 T790M/C797S/L858R): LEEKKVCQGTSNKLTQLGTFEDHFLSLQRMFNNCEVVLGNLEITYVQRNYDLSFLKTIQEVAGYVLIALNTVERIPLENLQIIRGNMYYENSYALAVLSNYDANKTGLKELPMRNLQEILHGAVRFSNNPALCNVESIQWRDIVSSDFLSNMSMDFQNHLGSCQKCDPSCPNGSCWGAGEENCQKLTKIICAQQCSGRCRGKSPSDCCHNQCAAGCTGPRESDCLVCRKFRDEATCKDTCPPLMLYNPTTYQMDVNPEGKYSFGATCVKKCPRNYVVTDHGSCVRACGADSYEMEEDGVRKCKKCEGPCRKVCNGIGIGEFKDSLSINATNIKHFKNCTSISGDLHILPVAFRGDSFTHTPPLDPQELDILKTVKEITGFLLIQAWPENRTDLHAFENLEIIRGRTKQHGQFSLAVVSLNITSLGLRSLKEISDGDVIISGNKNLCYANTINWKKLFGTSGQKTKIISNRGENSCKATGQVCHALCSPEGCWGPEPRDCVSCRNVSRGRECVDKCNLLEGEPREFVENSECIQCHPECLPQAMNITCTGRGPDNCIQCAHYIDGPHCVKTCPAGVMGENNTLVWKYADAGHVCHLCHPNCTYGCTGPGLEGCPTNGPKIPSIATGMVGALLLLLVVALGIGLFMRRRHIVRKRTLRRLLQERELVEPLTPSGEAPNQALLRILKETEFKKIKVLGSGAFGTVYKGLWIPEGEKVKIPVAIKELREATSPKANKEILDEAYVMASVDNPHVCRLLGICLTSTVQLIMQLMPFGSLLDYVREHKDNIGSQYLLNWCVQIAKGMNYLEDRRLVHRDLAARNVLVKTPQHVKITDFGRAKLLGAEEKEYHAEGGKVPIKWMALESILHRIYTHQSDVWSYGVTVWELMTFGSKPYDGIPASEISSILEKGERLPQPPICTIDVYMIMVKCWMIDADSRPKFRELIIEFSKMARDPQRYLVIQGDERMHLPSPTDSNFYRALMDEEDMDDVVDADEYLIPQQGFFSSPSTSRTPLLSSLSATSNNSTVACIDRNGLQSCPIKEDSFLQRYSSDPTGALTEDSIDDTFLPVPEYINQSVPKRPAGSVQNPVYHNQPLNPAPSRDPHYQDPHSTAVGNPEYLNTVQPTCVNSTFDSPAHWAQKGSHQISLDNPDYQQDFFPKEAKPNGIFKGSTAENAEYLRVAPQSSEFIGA
Procedure, shortened: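 Adhered H1975 C797S cells got compound for 3 h in duplicate at 0.1% DMSO final, then were lysed 30 min at room temperature. HTRF kits quantified phospho-EGFR (Tyr1068) and total EGFR (665/620 nm); results are pEGFR/total EGFR ratio as percent of 0 μM control.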

[3] = target: T3, Phospho-EGFR (Tyr1068) in A431 cells (Homo sapiens, UniProt P00533); experiment: HTRF pEGFR/total EGFR in A431 cells with EGF stimulation; type: cell-based; conditions: ratio pEGFR/total EGFR, compound 2.5 hours then 100 ng/ml EGF 30 mins
T3 construct: endogenous in cells; host or cells: A431
T3 sequence (P00533 25-1210): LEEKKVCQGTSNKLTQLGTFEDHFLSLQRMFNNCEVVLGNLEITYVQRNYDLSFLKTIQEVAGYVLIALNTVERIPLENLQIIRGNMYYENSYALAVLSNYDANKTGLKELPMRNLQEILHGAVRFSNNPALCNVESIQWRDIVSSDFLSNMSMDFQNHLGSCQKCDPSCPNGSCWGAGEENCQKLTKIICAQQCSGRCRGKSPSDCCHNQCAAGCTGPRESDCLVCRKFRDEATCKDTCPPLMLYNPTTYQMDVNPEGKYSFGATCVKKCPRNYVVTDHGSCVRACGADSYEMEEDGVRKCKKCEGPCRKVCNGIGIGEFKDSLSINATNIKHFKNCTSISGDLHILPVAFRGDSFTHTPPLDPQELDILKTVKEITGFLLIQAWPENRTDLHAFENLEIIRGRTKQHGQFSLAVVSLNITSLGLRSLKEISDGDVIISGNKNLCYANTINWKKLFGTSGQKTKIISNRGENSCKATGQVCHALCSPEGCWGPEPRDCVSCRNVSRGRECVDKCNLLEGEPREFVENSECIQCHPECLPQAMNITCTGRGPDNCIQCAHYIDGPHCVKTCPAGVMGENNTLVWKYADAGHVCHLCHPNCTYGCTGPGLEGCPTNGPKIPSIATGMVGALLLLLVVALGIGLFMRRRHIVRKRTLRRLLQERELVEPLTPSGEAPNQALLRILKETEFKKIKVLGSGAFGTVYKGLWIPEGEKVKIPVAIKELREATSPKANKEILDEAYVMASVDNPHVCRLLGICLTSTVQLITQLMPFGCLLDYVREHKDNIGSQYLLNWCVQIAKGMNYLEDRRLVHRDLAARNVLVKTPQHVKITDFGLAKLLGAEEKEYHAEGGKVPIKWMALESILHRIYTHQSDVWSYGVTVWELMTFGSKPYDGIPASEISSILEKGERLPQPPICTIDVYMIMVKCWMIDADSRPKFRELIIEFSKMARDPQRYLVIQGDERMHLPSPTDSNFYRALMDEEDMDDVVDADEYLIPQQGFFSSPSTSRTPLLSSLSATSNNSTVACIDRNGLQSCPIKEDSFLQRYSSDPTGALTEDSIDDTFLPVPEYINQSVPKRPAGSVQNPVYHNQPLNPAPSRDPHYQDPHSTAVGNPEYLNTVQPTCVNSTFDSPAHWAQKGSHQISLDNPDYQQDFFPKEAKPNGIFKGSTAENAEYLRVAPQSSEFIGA
Procedure, shortened: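 A431 cells were plated at 20,000 per well, allowed 24 h to adhere, then given compound for 2.5 h (0.1% DMSO final). They were then stimulated with 100 ng/ml EGF for 30 min and lysed. HTRF measured Tyr1068-phospho and total EGFR at 665/620 nm, with pEGFR/total EGFR expressed as % of the 0 μM control.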

[4] = target: CtermHisTag-mEGFR Wild type (Homo sapiens, UniProt P00533); experiment: biochemical
Chain of CtermHisTag-mEGFR Wild type (P00533 whole entry): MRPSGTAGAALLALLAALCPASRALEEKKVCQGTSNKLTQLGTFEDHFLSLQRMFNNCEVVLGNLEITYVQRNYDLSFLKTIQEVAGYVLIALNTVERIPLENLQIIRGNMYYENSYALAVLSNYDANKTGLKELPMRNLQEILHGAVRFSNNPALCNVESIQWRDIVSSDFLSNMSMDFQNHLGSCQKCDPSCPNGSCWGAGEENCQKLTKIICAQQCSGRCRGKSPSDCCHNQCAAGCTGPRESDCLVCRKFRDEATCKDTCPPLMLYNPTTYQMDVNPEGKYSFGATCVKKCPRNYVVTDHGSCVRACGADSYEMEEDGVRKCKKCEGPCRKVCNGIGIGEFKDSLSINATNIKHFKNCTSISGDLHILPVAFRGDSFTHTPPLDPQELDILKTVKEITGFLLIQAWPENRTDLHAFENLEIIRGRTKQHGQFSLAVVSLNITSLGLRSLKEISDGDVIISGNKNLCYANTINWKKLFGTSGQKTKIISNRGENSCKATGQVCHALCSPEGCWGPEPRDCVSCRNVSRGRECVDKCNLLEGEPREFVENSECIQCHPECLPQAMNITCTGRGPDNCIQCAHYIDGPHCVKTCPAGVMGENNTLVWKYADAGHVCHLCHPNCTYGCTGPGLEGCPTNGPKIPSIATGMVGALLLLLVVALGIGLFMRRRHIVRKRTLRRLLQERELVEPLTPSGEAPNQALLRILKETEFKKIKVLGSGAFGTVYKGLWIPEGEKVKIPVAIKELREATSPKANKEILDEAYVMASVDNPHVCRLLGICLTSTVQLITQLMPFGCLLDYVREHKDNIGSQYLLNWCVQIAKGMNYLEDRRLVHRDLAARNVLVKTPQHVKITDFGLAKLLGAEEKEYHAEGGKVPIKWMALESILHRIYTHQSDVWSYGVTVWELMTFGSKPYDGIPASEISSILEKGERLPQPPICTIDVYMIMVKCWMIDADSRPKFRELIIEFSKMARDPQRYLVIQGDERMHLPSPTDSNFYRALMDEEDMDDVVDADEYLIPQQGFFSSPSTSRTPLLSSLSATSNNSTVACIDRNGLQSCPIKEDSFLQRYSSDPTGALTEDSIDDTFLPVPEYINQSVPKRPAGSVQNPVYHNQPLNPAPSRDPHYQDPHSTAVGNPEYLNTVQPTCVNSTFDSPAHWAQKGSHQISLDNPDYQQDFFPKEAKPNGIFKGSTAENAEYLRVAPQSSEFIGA

C#Cc1cc(=O)n2c3nc(ncc13)Nc1ccc(N3CCN(C)CC3)c(c1)NC(=O)CCC2 [Example 222, 1^5-ethynyl-3^4-(4-methylpiperazin-1-yl)-1^7,1^8-dihydro-2,4-diaza-1(2,8)-pyrido[2,3-d]pyrimidina-3(1,3)-benzenacyclooctaphane-1^7,5-dione]
IC50 [1]: < 500 nM
IC50 [2]: < 500 nM
IC50 [3]: 1000 to 3000 nM
IC50 [4]: < 1000 nM

C#Cc1cc(=O)n(C)c2nc(Nc3ccc(N4CCN(C)CC4)c(OC4CCCC4)c3)ncc12 [Example 215, 2-((3-(Cyclopentyloxy)-4-(4-methylpiperazin-1-yl)phenyl)amino)-5-ethynyl-8-methylpyrido[2,3-d]pyrimidin-7(8H)-one]
IC50 [1]: < 500 nM
IC50 [2]: < 500 nM
IC50 [3]: 1000 to 3000 nM
IC50 [4]: < 1000 nM

C#Cc1c(C)c(=O)n(Cc2cnn(C)c2)c2nc(Nc3ccc(N4CCN(C)CC4)cc3)ncc12 [Example 180, 5-Ethynyl-6-methyl-2-{[4-(4-methylpiperazin-1-yl)phenyl]aminol}-8-[(1-methylpyrazol-4-yl)methyl]pyrido[2,3-d]pyrimidin-7-one]
IC50 [1]: 1000 to 3000 nM
IC50 [2]: 1000 to 3000 nM
IC50 [3]: > 3000 nM
IC50 [4]: 1000 to 10000 nM

C#Cc1cc(=O)n([C@H]2CC[C@@H](CO)CC2)c2nc(Nc3ccc(N(C)CCN(C)C)cc3)ncc12 [Example 80, 2-[(4-{[2-(Dimethylamino)ethyl](methyl)amino}phenyl)amino]-5-ethynyl-8-[(1s,4s)-4-(hydroxymethyl)cyclohexyl]pyrido[2,3-d]pyrimidin-7-one]
IC50 [1]: < 500 nM
IC50 [2]: 500 to 1000 nM
IC50 [3]: 1000 to 3000 nM
IC50 [4]: < 1000 nM

C#Cc1cc(=O)n2c3nc(ncc13)Nc1ccc(N3CCN(C)CC3)c(c1)OCCCC2 [Example 189, 1^5-ethynyl-3^4-(4-methylpiperazin-1-yl)-1^7,1^8-dihydro-4-oxa-2-aza-1(2,8)-pyrido[2,3-d]pyrimidina-3(1,3)-benzenacyclooctaphan-1^7-one]
IC50 [1]: < 500 nM
IC50 [2]: < 500 nM
IC50 [3]: 500 to 1000 nM
IC50 [4]: < 1000 nM

C#Cc1c(C)c(=O)n(-c2ccccc2)c2nc(Nc3ccc(N4CCN(C)CC4)cc3)ncc12 [Example 151, 5-Ethynyl-6-methyl-2-{[4-(4-methylpiperazin-1-yl)phenyl]amino}-8-phenylpyrido[2,3-d]pyrimidin-7-one]
IC50 [1]: 500 to 1000 nM
IC50 [2]: 500 to 1000 nM
IC50 [3]: 1000 to 3000 nM
IC50 [4]: 1000 to 10000 nM

C#Cc1cc(=O)n(-c2ccccc2)c2nc(Nc3ccc(N(C)CCN(C)C)cc3)ncc12 [Example 34, 2-((4-((2-(Dimethylamino)ethyl)(methyl)amino)phenyl)amino)-5-ethynyl-8-phenylpyrido[2,3-d]pyrimidin-7(8H)-one]
IC50 [1]: < 500 nM
IC50 [2]: > 3000 nM
IC50 [3]: > 3000 nM
IC50 [4]: < 1000 nM

C#Cc1c(C)c(=O)n(Cc2ncco2)c2nc(Nc3ccc(N4CCN(C)CC4)cc3)ncc12 [Example 114, 5-ethynyl-6-methyl-2-{[4-(4-methylpiperazin-1-yl)phenyl]amino}-8-(1,3-oxazol-2-ylmethyl)pyrido[2,3-d]pyrimidin-7-one]
IC50 [1]: 1000 to 3000 nM
IC50 [2]: 1000 to 3000 nM
IC50 [3]: 1000 to 3000 nM
IC50 [4]: < 1000 nM

C#Cc1cc(=O)n(-c2ccccc2)c2nc(Nc3ccc(N4CCN(CCO)CC4)cc3)ncc12 [Example 17, 5-ethynyl-2-({4-[4-(2-hydroxyethyl)piperazin-1-yl]phenyl}amino)-8-phenylpyrido[2,3-d]pyrimidin-7-one]
IC50 [1]: < 500 nM
IC50 [2]: < 500 nM
IC50 [3]: 1000 to 3000 nM
IC50 [4]: < 1000 nM

C#Cc1c(C)c(=O)n2c3nc(ncc13)Nc1ccc(N3CCN(C)CC3)c(c1)OCCCCC2 [Example 229, 1^5-Ethynyl-1^6-Methyl-3^4-(4-methylpiperazin-1-yl)-1^7,1^8-dihydro-4-oxa-2-aza-1(2,8)-pyrido[2,3-d]pyrimidina-3(1,3)-benzenacyclononaphan-1^7-one]
IC50 [1]: < 500 nM
IC50 [2]: < 500 nM
IC50 [3]: < 500 nM
IC50 [4]: < 1000 nM

C#Cc1cc(=O)n([C@H]2CC[C@@H](NC(=O)CN(C)C)CC2)c2nc(Nc3ccccc3OC)ncc12 [Example 90, 2-(Dimethylamino)-N-[(1s,4s)-4-{5-ethynyl-2-[(2-methoxyphenyl)amino]-7-oxopyrido[2,3-d]pyrimidin-8-yl}cyclohexyl]acetamide]
IC50 [1]: 1000 to 3000 nM
IC50 [2]: > 3000 nM
IC50 [3]: > 3000 nM
IC50 [4]: 1000 to 10000 nM

C#Cc1cc(=O)n(-c2ccccc2)c2nc(Nc3ccc(N4CCN(C(C)C)CC4)cc3)ncc12 [Example 16, 5-Ethynyl-2-{[4-(4-isopropylpiperazin-1-yl)phenyl]amino}-8-phenylpyrido[2,3-d]pyrimidin-7-one]
IC50 [1]: < 500 nM
IC50 [2]: < 500 nM
IC50 [3]: 1000 to 3000 nM
IC50 [4]: < 1000 nM

C#Cc1cc(=O)n(C2CC(=O)N(C)C2)c2nc(Nc3ccc(N4CCN(C)CC4)cc3)ncc12 (centres unmarked) [Example 117, 4-(5-ethynyl-2-{[4-(4-methylpiperazin-1-yl)phenyl]amino}-7-oxopyrido[2,3-d]pyrimidin-8-yl)-1-methylpyrrolidin-2-one]
IC50 [1]: > 3000 nM
IC50 [2]: > 3000 nM
IC50 [3]: > 3000 nM
IC50 [4]: > 10000 nM

C#Cc1cc(=O)n(C[C@@H]2CCC(=O)N2)c2nc(Nc3ccc(N4CCN(C)CC4)cc3)ncc12 [Example 71, (S)-5-Ethynyl-2-((4-(4-methylpiperazin-1-yl)phenyl)amino)-8-((5-oxopyrrolidin-2-yl)methyl)pyrido[2,3-d]pyrimidin-7(8H)-one]
IC50 [1]: > 3000 nM
IC50 [2]: > 3000 nM
IC50 [3]: > 3000 nM
IC50 [4]: > 10000 nM

C#Cc1cc(=O)n(-c2ccccc2)c2nc(Nc3ccc(N4CCC(N5CC(COC)C5)CC4)cc3)ncc12 [Example 39, 5-Ethynyl-2-[(4-{4-[3-(methoxymethyl)azetidin-1-yl]piperidin-1-yl}phenyl)amino]-8-phenylpyrido[2,3-d]pyrimidin-7-one]
IC50 [1]: < 500 nM
IC50 [2]: < 500 nM
IC50 [3]: 1000 to 3000 nM
IC50 [4]: < 1000 nM

C#Cc1cc(=O)n(-c2ccc(NS(C)(=O)=O)cc2)c2nc(Nc3ccccc3OC)ncc12 [Example 63, N-(4-(5-Ethynyl-2-((2-methoxyphenyl)amino)-7-oxopyrido[2,3-d]pyrimidin-7(8H)-yl)phenyl)methanesulfonamide]
IC50 [1]: > 3000 nM
IC50 [2]: > 3000 nM
IC50 [3]: > 3000 nM
IC50 [4]: < 1000 nM

C#Cc1cc(=O)n([C@H]2CC[C@H](NC(C)=O)CC2)c2nc(Nc3ccc(N4CCN(C)CC4)cc3)ncc12 [Example 87, N-[(1r,4r)-4-(5-Ethynyl-2-{[4-(4-methylpiperazin-1-yl)phenyl]amino}-7-oxopyrido[2,3-d]pyrimidin-8-yl)cyclohexyl]acetamide]
IC50 [1]: < 500 nM
IC50 [2]: < 500 nM
IC50 [3]: > 3000 nM
IC50 [4]: < 1000 nM

C#Cc1c(C)c(=O)n(Cc2ccnn2C)c2nc(Nc3ccc(N4CCN(C)CC4)cc3)ncc12 [Example 112, 5-ethynyl-6-methyl-2-{[4-(4-methylpiperazin-1-yl)phenyl]amino}-8-[(2-methylpyrazol-3-yl)methyl]pyrido[2,3-d]pyrimidin-7-one]
IC50 [1]: 1000 to 3000 nM
IC50 [2]: 1000 to 3000 nM
IC50 [3]: > 3000 nM
IC50 [4]: 1000 to 10000 nM

C#Cc1c(C)c(=O)n(C)c2nc(Nc3ccc(N4CCN(C)CC4)cc3)ncc12 [Example 149, 5-ethynyl-6,8-dimethyl-2-{[4-(4-methylpiperazin-1-yl)phenyl]amino}pyrido[2,3-d]pyrimidin-7-one]
IC50 [1]: > 3000 nM
IC50 [2]: > 3000 nM
IC50 [3]: > 3000 nM
IC50 [4]: 1000 to 10000 nM

C#Cc1cc(=O)n(-c2ccc(NC(=O)CC)cc2)c2nc(Nc3ccccc3OC)ncc12 [Example 65, N-(4-(5-Ethynyl-2-((2-methoxyphenyl)amino)-7-oxopyrido[2,3-d]pyrimidin-7(8H)-yl)phenyl)propionamide]
IC50 [1]: > 3000 nM
IC50 [2]: > 3000 nM
IC50 [3]: > 3000 nM
IC50 [4]: 1000 to 10000 nM

C#Cc1c(C)c(=O)n(Cc2ccn(C)n2)c2nc(Nc3ccc(N4CCN(C)CC4)cc3)ncc12 [Example 110, 5-ethynyl-6-methyl-2-{[4-(4-methylpiperazin-1-yl)phenyl]amino}-8-[(1-methylpyrazol-3-yl)methyl]pyrido[2,3-d]pyrimidin-7-one]
IC50 [1]: 500 to 1000 nM
IC50 [2]: 1000 to 3000 nM
IC50 [3]: 1000 to 3000 nM
IC50 [4]: < 1000 nM

C#Cc1cc(=O)n(-c2ccccc2)c2nc(Nc3ccc(N4CCNC5(CC5)C4)cc3)ncc12 [Example 38, 2-[(4-{4,7-Diazaspiro[2.5]octan-7-yl}phenyl)amino]-5-ethynyl-8-phenylpyrido[2,3-d]pyrimidin-7-one]
IC50 [1]: < 500 nM
IC50 [2]: < 500 nM
IC50 [3]: > 3000 nM
IC50 [4]: < 1000 nM

C#Cc1cc(=O)n(-c2ccccc2)c2nc(NC3CCN(S(C)(=O)=O)CC3)ncc12 [Example 10, 5-Ethynyl-2-((1-(methylsulfonyl)piperidin-4-yl)amino)-8-phenylpyrido[2,3-d]pyrimidin-7(8H)-one]
IC50 [1]: > 3000 nM
IC50 [2]: > 3000 nM
IC50 [3]: > 3000 nM
IC50 [4]: < 1000 nM
